According to patent publication US8691815B2, “Substituted oxindole derivatives, drugs containing said derivatives and the use thereof” (AbbVie Deutschland GmbH & Co. KG, priority 2005, dated 2014):
Structures can show the parent of a compound that is named as a salt. Blank lines part the entries; values can stand above or below the compound they belong to.

How the values were obtained:
[1] = target: T1, human vasopressin V1b receptor (Homo sapiens, UniProt P47901); experiment: Vasopressin V1b receptor binding assay; conditions: membranes from CHO-K1 cells with stably expressed human V1b receptors, displacement of 1.5 nM 3H-AVP
T1 construct: expressed in transfected cells; host or cells: CHO-K1 (cell line hV1b-3H2_CHO), membrane preparation
T1 sequence (P47901 1-424): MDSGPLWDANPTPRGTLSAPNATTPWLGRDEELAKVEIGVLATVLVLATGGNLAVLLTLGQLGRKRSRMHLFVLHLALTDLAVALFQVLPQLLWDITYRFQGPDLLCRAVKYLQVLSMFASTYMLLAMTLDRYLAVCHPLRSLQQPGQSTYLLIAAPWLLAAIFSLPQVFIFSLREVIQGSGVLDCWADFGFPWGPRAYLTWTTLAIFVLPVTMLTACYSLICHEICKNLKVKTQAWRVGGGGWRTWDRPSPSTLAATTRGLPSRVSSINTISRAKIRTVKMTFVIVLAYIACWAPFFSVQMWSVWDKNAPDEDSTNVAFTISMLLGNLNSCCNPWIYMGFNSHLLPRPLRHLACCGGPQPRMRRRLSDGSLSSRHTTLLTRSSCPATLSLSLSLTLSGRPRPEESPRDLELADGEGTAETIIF
Method in brief: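 Membranes were incubated with radioligand for 60 min at room temperature in 50 mM Tris, 10 mM MgCl2, 0.1% BSA, pH 7.4, with 2% DMSO final. Nonspecific binding was defined with 1 uM AVP. Bound ligand was collected by GF/B filtration and counted by scintillation, and binding parameters were derived by nonlinear regression.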

[2] = target: T2, human V1b receptor (Homo sapiens, UniProt P47901); experiment: Effect on vasopressin-induced calcium increase in cells having a cloned human vasopressin receptor; type: cell-based; conditions: CHO-K1 cells stably transfected with human V1b receptor, Arg-vasopressin 10^-8 M, FLIPR calcium
T2 construct: expressed in transfected cells; host or cells: CHO-K1
T2 sequence (P47901 1-424): T1 sequence (P47901 1-424)
Protocol: Effect on Vasopressin-induced Calcium Increase in Cells Having a Cloned Human Vasopressin Receptor The functional activity of the test substances was investigated on CHO-K1 cells which were stably transfected with the human V1b receptor. 50 000 cells were seeded in each well of a microtiter plate with 96 wells and incubated in culture medium in a saturated water vapor atmosphere with 5% CO2 at 37° C. overnight. The culture medium consisted of DMEM/Nut Mix F12 with Glutamax I (from Invitrogen), 10% fetal calf serum, 100 units/ml penicillin, 100 μg/ml streptomycin and 800 μg/ml Geneticin. The following day, the cells were washed with culture medium and loaded with a fluorescent dye for calcium in accordance with the manufacturer's statements (Ca^++-Plus-Assay Kit, Molecular Devices). The cells were loaded in the presence of probenzide (1 vol %). The test substances were diluted with culture medium (final concentration 10^−10 to 10^−5M) and incubated with the dye-loaded cells at room temperature for 15 minutes. The Arg-vasopressin (10^−8M) was then added and the maximum fluorescence signal was determined using a FLIPR-96 measuring instrument (Molecular Devices). Concentration-effect plots were constructed using nonlinear regression algorithms (GraphPad Prism 3.0). Kb values were calculated from IC50 values by the method of Cheng and Prusoff (Kb=IC50/1+L/EC50).

- Ki [1]: < 1 nM
- functional antagonist of the human vasopressin V1b receptor [2]: functional antagonist
Compound: COc1ccc(S(=O)(=O)N2C(=O)C(c3ccc(CN4CCCC4)cc3OC)(N3CCC[C@H]3C(=O)N(C)C)c3cc(Cl)ccc32)cc1 (single isomer, unassigned) [Example 2]

Compound: COc1ccc(CN(C)C)cc1C1(N2CCC[C@H]2C(=O)N(C)C)C(=O)N(S(=O)(=O)c2ccc(F)cc2)c2ccc(Cl)cc21 (stereo partly drawn) [Example 98, (S)-1-[5-Chloro-3-(5-dimethylaminomethyl-2-methoxyphenyl)-1-(4-fluorobenzene-sulfonyl)-2-oxo-2,3-dihydro-1H-indol-3-yl]pyrrolidine-2-dimethylcarboxamide, trifluoroacetic acid salt]
- Ki [1]: 1 to 10 nM

Compound: COc1cc(CN2CCNCC2)ccc1C1(N2CCC[C@H]2C(=O)N(C)C)C(=O)N(S(=O)(=O)c2ccc(C#N)cc2)c2ccc(Cl)cc21 (stereo partly drawn) [Example 99, (S)-1-[5-Chloro-1-(4-cyanobenzenesulfonyl)-3-(2-methoxy-4-piperazin-1-ylmethyl-phenyl)-2-oxo-2,3-dihydro-1H-indol-3-yl]pyrrolidine-2-dimethylcarboxamide, trifluoroacetic acid salt]
- Ki [1]: < 1 nM

Compound: CCCNCc1ccc(OC)c(C2(N3CCC[C@H]3C(=O)N(C)C)C(=O)N(S(=O)(=O)c3ccc(C#N)cc3)c3ccc(Cl)cc32)c1 (stereo partly drawn) [Example 100, (S)-1-[5-Chloro-1-(4-cyanobenzenesulfonyl)-3-(2-methoxy-5-propylaminomethyl-phenyl)-2-oxo-2,3-dihydro-1H-indol-3-yl]pyrrolidine-2-dimethylcarboxamide, trifluoroacetic acid salt]
- Ki [1]: < 1 nM

Compound: COc1ccc(CNC(C)C)cc1C1(N2CCC[C@H]2C(=O)N(C)C)C(=O)N(S(=O)(=O)c2ccc(C#N)cc2)c2ccc(Cl)cc21 (stereo partly drawn) [Example 101, (S)-1-[5-Chloro-1-(4-cyanobenzenesulfonyl)-3-(5-isopropylaminomethyl-2-methoxy-phenyl)-2-oxo-2,3-dihydro-1H-indol-3-yl]pyrrolidine-2-dimethylcarboxamide, trifluoroacetic acid salt]
- Ki [1]: < 1 nM

Compound: CNCc1ccc(OC)c(C2(N3CCC[C@H]3C(=O)N(C)C)C(=O)N(S(=O)(=O)c3ccc(C#N)cc3)c3ccc(Cl)cc32)c1 (stereo partly drawn) [Example 102, (S)-1-[5-Chloro-1-(4-cyanobenzenesulfonyl)-3-(2-methoxy-5-methylaminomethyl-phenyl)-2-oxo-2,3-dihydro-1H-indol-3-yl]pyrrolidine-2-dimethylcarboxamide, trifluoroacetic acid salt]
- Ki [1]: 1 to 10 nM

Compound: (S)-1-[3-(4-Aminomethyl-2-methoxyphenyl)-5-chloro-1-(4-cyanobenzenesulfonyl)-2-oxo-2,3-dihydro-1H-indol-3-yl]pyrrolidine-2-dimethylcarboxamide, trifluoroacetic acid salt [Example 76]
- Ki [1]: 1 to 10 nM

Compound: (S)-1-[3-(4-Aminomethyl-2-methoxyphenyl)-5-chloro-1-(4-fluorobenzenesulfonyl)-2-oxo-2,3-dihydro-1H-indol-3-yl]pyrrolidine-2-dimethylcarboxamide, trifluoroacetic acid salt [Example 75]
- Ki [1]: 10 to 100 nM

Compound: (S)-2-({5-Chloro-1-(2,4-dimethoxybenzenesulfonyl)-3-[2-methoxy-4-(4-methyl-piperazin-1-ylmethyl)phenyl]-2-oxo-2,3-dihydro-1H-indol-3-yl}methylamino)-N,N-dimethyl-propionamide [Example 15]
- Ki [1]: < 1 nM

Compound: (S)-2-{[5-Chloro-1-(2,4-dimethoxybenzenesulfonyl)-3-(4-dimethylaminomethyl-2-methoxyphenyl)-2-oxo-2,3-dihydro-1H-indol-3-yl]methylamino}-N,N-dimethyl-propionamide [Example 13]
- Ki [1]: 1 to 10 nM
